# In patent publication US20150306096A1, “8'-HYDROXY-DIHYDROERGOTAMINE COMPOUNDS AND COMPOSITIONS” (MAP Pharmaceuticals, Inc., priority 2012, published 2015):
# Read-outs that look alike come from different tables or passages of the source.
# How the values were obtained:
# [1] = cited from earlier work
# [2] = subcutaneous, 1.5 mM; cited from earlier work
# [3] = test system: Purinergic (P2X1/P2X2/P2X3/P2X4/P2X7); assay: Purinergic receptor QPatch patch clamp (agonist/antagonist); format: cell-based, human; settings: P2X receptors, 30 and 100 μM
# Experimental: Purinergic receptor studies were conducted to monitor activity of 8′-OH DHE against the P2X1, P2X2, P2X3, P2X4 and P2X7 receptors. Human recombinant purinergic receptor-expressing HEK293 cells were used, and receptor activity was evaluated at RT using QPatch HT® (Sophion Bioscience A/S, Denmark) automatic parallel patch clamp system. The test 8′-OH DHE compound was evaluated in both agonist and antagonist modes at 30 and 100 μM. Each concentration was tested in triplicate.
# [4] = test system: Somatostatin (SST1~SST5); assay: GTPγS assay; format: biochemical, human; settings: Somatostatin receptors
# Experimental: (§1) Additional receptor agonist/agonist activity assessments were performed using the 8′-OH DHE test compound. Table 12 contains a summary of the cell lines (CHO-K1/HEK293 transfected with relevant human receptor) and the assays performed to detect any agonist or antagonist activity.
# (§2) Reagents used were the following: Assay buffer (20 mM HEPES, pH 7.4; 100 mM NaCl; 10 mg/mL saponin; 30 mM MgCl2); Membranes (recombinant human receptor membrane extracts were thawed on ice and diluted in assay buffer to give […] (10 μgμL) and kept on ice); GDP (diluted in assay buffer to give 30 μM solution (3 μM final concentration); beads (PVT-WGA (Amersham, RPNQ001), diluted in assay buffer at 25 mg/mL (0.25 mg/10 μL)); GTPγ^35S (Perkin Elmer, NEG030X), diluted in assay buffer to give 0.1 nM (final concentration); and ligand (agonist/antagonist diluted in assay buffer).
# (§3) Membranes were mixed with GDP (1:1) and incubated for at least 15 minutes on ice. In parallel, GTPγ^35S was mixed with the beads (1:1) just before starting the reaction. […] The plates were then centrifuged for 10 minutes at 2,000 rpm and incubated at RT for 1 hour and counted for 1 min/well with a Perkin Elmer TopCount reader.
# [5] = target: T1, OP2 (κ) (Homo sapiens, UniProt P41145); assay: GTPγS assay; format: biochemical; settings: antagonism
# T1 construct: expressed in transfected cells; host or cells: CHO-K1 (membrane extracts)
# T1 sequence (P41145 whole entry): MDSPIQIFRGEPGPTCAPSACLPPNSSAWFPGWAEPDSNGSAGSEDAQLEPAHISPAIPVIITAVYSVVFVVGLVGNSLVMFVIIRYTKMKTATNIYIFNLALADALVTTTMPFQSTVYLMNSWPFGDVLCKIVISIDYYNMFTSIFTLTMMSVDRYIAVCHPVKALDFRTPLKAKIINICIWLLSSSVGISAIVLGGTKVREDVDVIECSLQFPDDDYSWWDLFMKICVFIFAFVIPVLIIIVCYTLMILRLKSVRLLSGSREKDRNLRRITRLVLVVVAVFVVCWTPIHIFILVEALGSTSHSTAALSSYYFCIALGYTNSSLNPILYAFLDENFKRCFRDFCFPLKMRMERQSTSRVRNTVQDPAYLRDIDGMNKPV
# Experimental: as §1, §2, §3
# [6] = test system: VIP/PACAP (PAC1/VPAC1/VPAC2); assay: Aequorin assay; format: cell-based, human; settings: VIP/PACAP receptors
# Experimental: as §1
# Aequorin assays were conducted to monitor activity for 8′-OH DHE against the receptors indicated in Table 12 above (except for mGlu3 and mGlu5). CHO-K1 cells co-expressing mitochondrial apoaequorin and the recombinant human receptor of interest were grown to mid-log phase in culture media without antibiotics and then detached with PBS-EDTA, centrifuged and resuspended in assay buffer (DMEMHAM's F12 with HEPES, without phenol red+0.1% BSA, protease free) at a concentration of 1×10^6 cell/mL. Cells were incubated at RT for at least 4 hours with coelenterazine h. Reference agonistant/agonist was tested to evaluate the performance of the assay and to determine EC50/IC50.
# 50 μL of the cell suspension was mixed with 50 μL of test or reference agonist in a 96-well plate. The resulting emission of light was recorded using Hamamatsu Functional Drug Screening System 6000 (FDSS 6000) luminometer. For antagonist testing, 100 μL of the reference agonist at its EC80 was injected on the mix of cells and test compound, following an incubation of 15 minutes after the first injection. The resulting emission of light was recorded using the FDSS 6000 luminometer. To standardize the emission of recorded light (and determine of the ‘100% signal’) across plates and across different experiments, some wells contained 100 μM digitonin or a saturating concentration of ATP (20 μM).
# [7] = target: T2, Adenosine A2a (Homo sapiens, UniProt P29274); assay: cAMP HTRF assay; format: cell-based
# T2 construct: expressed in transfected cells; host or cells: HEK293
# T2 sequence (P29274 whole entry): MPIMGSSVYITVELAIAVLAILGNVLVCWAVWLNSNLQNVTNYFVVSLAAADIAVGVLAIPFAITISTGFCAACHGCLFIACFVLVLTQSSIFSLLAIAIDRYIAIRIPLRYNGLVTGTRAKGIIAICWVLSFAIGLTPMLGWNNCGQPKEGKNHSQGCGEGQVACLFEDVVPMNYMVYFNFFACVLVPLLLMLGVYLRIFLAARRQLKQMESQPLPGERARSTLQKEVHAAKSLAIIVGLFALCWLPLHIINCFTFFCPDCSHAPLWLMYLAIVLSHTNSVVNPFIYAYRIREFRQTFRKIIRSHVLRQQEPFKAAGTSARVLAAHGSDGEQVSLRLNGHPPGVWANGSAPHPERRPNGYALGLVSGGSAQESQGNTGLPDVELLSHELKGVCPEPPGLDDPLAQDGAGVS
# Experimental: as §1
# Cells expressing the human recombinant receptor of interest were grown in media without antibiotic and detached by gentle flushing with PBS-EDTA (5 mM EDTA), recovered by centrifugation and resuspended in assay buffer (KRH: 5 mM KCl, 1.25 mM MgSO4, 124 mM NaCl, 25 mM HEPES, 13.3 mM glucose, 1.25 mM KH2PO4, 1.45 mM CaCl2, 0.5 g/L BSA). Dose response curves were performed in parallel with the reference compounds. For agonist tests (96-well plates), 12 μL of cells was mixed with 12 μL of the test 8′-OH DHE compound at increasing concentrations and then incubated for 30 minutes at RT. Lysis buffer was added and after one hour incubation, cAMP concentrations were determined according to the manufacturer specification with the HTRF kit. For antagonist tests (96-well plates), 12 μL of cells was mixed with 6 μL of the test 8′-OH DHE compound at increasing concentrations and then incubated for 10 minutes. […] Lysis buffer was added and after 1 hour incubation, cAMP concentrations were determined according to the manufacturer specification, with the HTRF kit. […]
Structure (SMILES),fraction of dose extracted in the urine ([1]; IM administered dose),bioavailability ([1]; IM) [%],bioavailability ([1]; IN administration),oral bioavailability ([1]; oral),"nausea, share of treated patients [2] [%]",Activity (Agonism: EC50; Antagonism: IC50) [3],Activity (Agonism: EC50; Antagonism: IC50) [4],IC50 [5] [nM],Activity (Agonism: EC50; Antagonism: IC50) [6],Activity (Agonism: EC50; Antagonism: IC50) [7]
"CN1C[C@H](C(=O)N[C@]2(C)O[C@@]3(O)[C@@H]4CCCN4C(=O)[C@H](Cc4ccccc4)N3C2=O)C[C@@H]2c3cccc4[nH]cc(c34)C[C@H]21 [DHE, Dihydroergotamine]",6-7%,100,about 40%,1-3%,~16,–,–,–,–,–
"CN1C[C@H](C(=O)N[C@]2(C)O[C@@]3(O)[C@@H]4CCC(O)N4C(=O)[C@H](Cc4ccccc4)N3C2=O)C[C@@H]2c3cccc4[nH]cc(c34)C[C@H]21 (stereo partly shown) [8′-OH DHE, 8′-Hydroxy-Dihydroergotamine]",–,–,–,–,–,Inactive,Inactive,> 1000,Inactive,Inactive
